Measurements: article PMC5063977 (The Journal of Biological Chemistry, 2016)

How the values were obtained:
RAMP2-CLR (AM1 receptor) = target: T1, RAMP2-CLR (AM1 receptor) (Homo sapiens, UniProt O60895+Q16602); assay: (Ca^2+)i mobilization, HEK-293S cells, RAMP2 + CLR; assay type: cell-based; details: HEK293S, percentage of maximal (Ca^2+)i release with 10 μM ionomycin, mean ± S.E., n = 5
T1 construct: FLAG; expressed in transfected cells; host or cells: HEK-293 or HEK-293S cells, transient transfection, 1:1 RAMP:CLR
T1 sequence (Q16602 23-461): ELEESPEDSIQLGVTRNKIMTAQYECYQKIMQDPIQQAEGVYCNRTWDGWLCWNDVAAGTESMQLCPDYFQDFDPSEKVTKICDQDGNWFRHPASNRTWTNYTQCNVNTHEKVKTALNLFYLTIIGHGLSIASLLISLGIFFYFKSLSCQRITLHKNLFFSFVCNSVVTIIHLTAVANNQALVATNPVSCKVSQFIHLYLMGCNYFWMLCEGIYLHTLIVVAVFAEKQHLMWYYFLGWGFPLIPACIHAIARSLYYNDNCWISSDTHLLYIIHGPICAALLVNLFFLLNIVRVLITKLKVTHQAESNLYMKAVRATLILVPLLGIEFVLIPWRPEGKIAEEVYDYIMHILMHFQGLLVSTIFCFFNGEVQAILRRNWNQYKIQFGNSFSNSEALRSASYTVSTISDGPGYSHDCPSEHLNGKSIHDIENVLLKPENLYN
T1 sequence (O60895 43-175): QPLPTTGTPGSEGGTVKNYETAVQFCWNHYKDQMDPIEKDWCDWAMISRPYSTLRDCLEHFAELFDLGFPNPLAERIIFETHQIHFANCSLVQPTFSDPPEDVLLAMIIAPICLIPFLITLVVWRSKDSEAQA
Experimental: HEK-293 cells were transfected with FuGENE 6 (Roche Applied Science) in accordance with the manufacturer's instructions using a 1:3 (w:v) DNA:FuGENE ratio and a 1:1 ratio of RAMP to CLR. […] The transfected cell lines were grown for 24–48 h prior to assaying.
Transfected HEK-293 cells were grown to confluence in black, clear bottomed, 96-well plates. […] Cells were then washed followed by the addition of 100 μl of Ca^2+-free Hanks' balanced salt solution. […] Recordings were obtained every 0.5 s for 120 s. Peak magnitude was calculated using five-point smoothing followed by correction against background fluorescence. The peak was used to generate concentration-response curves and normalized relative to 10 μM ionomycin.
Data analysis for cAMP assays was performed in GraphPad Prism 6.0f (San Diego, CA). […] These values were then used to quantify signaling bias as change in log (τ/Ka) relative to the natural cognate ligand for the respective receptor ([41]). […] Statistical differences were analyzed using one-way ANOVA or Student's t test as appropriate with post hoc Bonferroni's or Dunnett's multiple comparisons, and p < 0.05 was considered significant. […] To quantitate the ligand-dependent response in the yeast system, a strain lacking GPA1 (MMY11), grown in rich medium, was used as a standard ([72]). […]

RAMP3-CLR (AM2 receptor) = target: T2, RAMP3-CLR (AM2 receptor) (Homo sapiens, UniProt O60896+Q16602); assay: (Ca^2+)i mobilization, HEK-293S cells, RAMP3 + CLR; assay type: cell-based; details: HEK293S, percentage of maximal (Ca^2+)i release with 10 μM ionomycin, mean ± S.E., n = 5
T2 construct: FLAG; expressed in transfected cells; host or cells: HEK-293 or HEK-293S cells, transient transfection, 1:1 RAMP:CLR
T2 sequence (Q16602 23-461): as the sequence (Q16602 23-461) above
T2 sequence (O60896 24-148): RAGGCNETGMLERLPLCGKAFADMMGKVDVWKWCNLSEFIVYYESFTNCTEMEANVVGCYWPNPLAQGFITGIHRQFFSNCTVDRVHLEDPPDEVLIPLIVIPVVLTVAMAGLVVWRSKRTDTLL
Experimental: HEK-293 cells, provided by Dr. Jügen Müller (University of Aston), were cultured in DMEM supplemented with 10% heat-inactivated FBS and kept at 37 °C in a humidified 95% air, 5% CO2 incubator. HEK-293S cells (a gift from AstraZeneca) were cultured in DMEM supplemented with 8% heat-inactivated FBS and kept at 37 °C in a humidified 95% air, 5% CO2 incubator. HEK-293 cells were transfected with FuGENE 6 (Roche Applied Science) in accordance with the manufacturer's instructions using a 1:3 (w:v) DNA:FuGENE ratio and a 1:1 ratio of RAMP to CLR. HEK-293S cells were seeded into 96-well poly-D-lysine-coated plates at a density of 15,000 cells/well (determined using a Countess^TM cell counter, Invitrogen) 1 day prior to transfection. HEK-293S cells were transiently transfected as described previously ([38]) using a 1:1 ratio of RAMP to CLR. The transfected cell lines were grown for 24–48 h prior to assaying.
Transfected HEK-293 cells were grown to confluence in black, clear bottomed, 96-well plates. […] Ligands were added robotically using a Mithras LB 940 multimode microplate reader in the range of 10 pM to 1 μM, and fluorescence was determined immediately post-injection with an excitation wavelength set to 485 nm and an emission wavelength set to 535 nm. […] Peak magnitude was calculated using five-point smoothing followed by correction against background fluorescence. […]

SMILES | Emax (RAMP2-CLR (AM1 receptor)) [%] | Emax (RAMP3-CLR (AM2 receptor)) [%]
CSCC[C@H](NC(=O)[C@H](CC(C)C)NC(=O)[C@H](CCC(N)=O)NC(=O)[C@H](Cc1c[nH]c2ccccc12)NC(=O)[C@H](CC(C)C)NC(=O)[C@H](CCCNC(=N)N)NC(=O)[C@H](Cc1c[nH]cn1)NC(=O)[C@H](CO)NC(=O)[C@H](CC(C)C)NC(=O)[C@H](CC(N)=O)NC(=O)[C@H](CCC(N)=O)NC(=O)[C@@H](NC(=O)[C@H](CCC(N)=O)NC(=O)[C@@H]1CSSC[C@H](NC(=O)CNC(=O)[C@@H](NC(=O)[C@H](CCCNC(=N)N)NC(=O)[C@H](CC(C)C)NC(=O)[C@H](CC(C)C)NC(=O)[C@H](CCC(N)=O)NC(=O)[C@H](C)NC(=O)[C@H](CCC(N)=O)NC(=O)[C@@H](N)[C@@H](C)O)C(C)C)C(=O)N[C@@H](C(C)C)C(=O)N[C@@H](CC(C)C)C(=O)NCC(=O)N[C@@H]([C@@H](C)O)C(=O)N1)C(C)C)C(=O)NCC(=O)N1CCC[C@H]1C(=O)N[C@@H](C)C(=O)NCC(=O)N[C@@H](CCCNC(=N)N)C(=O)N[C@@H](CCC(N)=O)C(=O)N[C@@H](CC(=O)O)C(=O)N[C@@H](CO)C(=O)N[C@@H](C)C(=O)N1CCC[C@H]1C(=O)N[C@H](C(=O)N[C@@H](CC(=O)O)C(=O)N1CCC[C@H]1C(=O)N[C@@H](CO)C(=O)N[C@@H](CO)C(=O)N1CCC[C@H]1C(=O)N[C@@H](Cc1c[nH]cn1)C(=O)N[C@@H](CO)C(=O)N[C@@H](Cc1ccc(O)cc1)C(N)=O)C(C)C [AM2, adrenomedullin 2] | 20.2 ± 2.8 | 20.1 ± 4.3
CC[C@H](C)[C@H](NC(=O)[C@H](CCC(N)=O)NC(=O)[C@H](Cc1c[nH]cn1)NC(=O)[C@H](C)NC(=O)[C@H](CC(C)C)NC(=O)[C@H](CCCCN)NC(=O)[C@H](CCC(N)=O)NC(=O)[C@@H](NC(=O)[C@@H](NC(=O)[C@@H]1CSSC[C@H](NC(=O)CNC(=O)[C@H](Cc2ccccc2)NC(=O)[C@H](CO)NC(=O)[C@H](CCCNC(=N)N)NC(=O)[C@H](CC(C)C)NC(=O)CNC(=O)[C@H](CCC(N)=O)NC(=O)[C@H](Cc2ccccc2)NC(=O)[C@H](CC(N)=O)NC(=O)[C@H](CC(N)=O)NC(=O)[C@H](CCSC)NC(=O)[C@H](CO)NC(=O)[C@H](CCC(N)=O)NC(=O)[C@H](CCCNC(=N)N)NC(=O)[C@@H](N)Cc2ccc(O)cc2)C(=O)N[C@@H](CCCNC(=N)N)C(=O)N[C@@H](Cc2ccccc2)C(=O)NCC(=O)N[C@@H]([C@@H](C)O)C(=O)N1)[C@@H](C)O)C(C)C)C(=O)N[C@@H](Cc1ccc(O)cc1)C(=O)N[C@@H](CCC(N)=O)C(=O)N[C@@H](Cc1ccccc1)C(=O)N[C@H](C(=O)N[C@@H](CC(=O)O)C(=O)N[C@@H](CCCCN)C(=O)N[C@@H](CC(=O)O)C(=O)N[C@@H](CCCCN)C(=O)N[C@@H](CC(=O)O)C(=O)N[C@@H](CC(N)=O)C(=O)N[C@H](C(=O)N[C@@H](C)C(=O)N1CCC[C@H]1C(=O)N[C@@H](CCCNC(=N)N)C(=O)N[C@@H](CO)C(=O)N[C@@H](CCCCN)C(=O)N[C@H](C(=O)N[C@@H](CO)C(=O)N1CCC[C@H]1C(=O)N[C@@H](CCC(N)=O)C(=O)NCC(=O)N[C@@H](Cc1ccc(O)cc1)C(N)=O)[C@@H](C)CC)C(C)C)[C@@H](C)O [AM, adrenomedullin] | – | 44.3 ± 3.2
